Assay results reported in patent US9181234B2, “Antibacterial compounds” (priority 2010, dated 2015).
≈ marks a conversion by molar mass, not a printed value.

Columns and labels:
physchem = conditions: kinetic from dmso stock
How it was run: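 DMSO doubling dilutions were diluted twenty-fold into 100 mM citrate (pH 4), PBS (pH 7.4) or carbonate-bicarbonate (pH 9). After 24 h equilibration at room temperature, absorbance was read at 620 nm. The reported value is the highest concentration without measurable precipitate.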

[1] = system: Staphylococcus aureus (Isolate ID ATCC 29213); test: Antibacterial activity, MIC, S. aureus; type: cell-based; conditions: Staphylococcus aureus, ATCC29213, Gram positive strain; broth microdilution or agar dilution
How it was run: (§1)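 MICs were determined by broth microdilution or agar dilution following CLSI guidelines (M7-A7), testing susceptibility in liquid or on solid media.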

[2] = system: Streptococcus pyogenes (Isolate ID ATCC 51339); test: Antibacterial activity, MIC, S. pyogenes; type: cell-based; conditions: Streptococcus pyogenes, ATCC51339, Gram positive strain; broth microdilution or agar dilution
How it was run: as §1

[3] = system: Haemophilus influenzae (Isolate ID ATCC 49247); test: Antibacterial activity, MIC, H. influenzae; type: cell-based; conditions: Haemophilus influenzae, ATCC49247; Gram negative strain; broth microdilution or agar dilution
How it was run: as §1

[4] = system: Enterococcus faecalis (Isolate ID ATCC 29212); test: Antibacterial activity, MIC, E. faecalis; type: cell-based; conditions: Enterococcus faecalis, ATCC29212; Gram positive strain; broth microdilution or agar dilution
Method: Bacterial Assay: Determination of Antibacterial Activity
Compounds of the invention were tested for antimicrobial activity by susceptibility testing in liquid or on solid media. MICs for compounds against each strain were determined by the broth microdilution or agar dilution method according to the guidelines of the Clinical Laboratories and Standards Institute, formerly the National Committee for Clinical Laboratory Standards (Clinical Laboratories and Standards Institute. Methods for Dilution Antimicrobial Susceptibility Tests for Bacteria That Grow Aerobically; Approved Standard—Seventh Edition. Document M7-A7. CLSI, Wayne, Pa., 2006; Clinical Laboratories and Standards Institute. The gram positive bacterial strains tested include S. aureus (Staphylococcus aureus (Isolate ID ATCC 29213)), E. faecalis (Enterococcus faecalis (Isolate ID ATCC 29212)) and S. pyogenes (Streptococcus pyogenes (Isolate ID ATCC 51339)). The gram negative bacterial strains tested include H. influenzae (Haemophilus influenzae (Isolate ID ATCC 49247))

[5] = pH 7.4, aqueous buffer, Max Solubility
[6] = pH 7.4, aqueous buffer, Solubility (pH 7.4)
[7] = pH 7.4, aqueous buffer, Solubility Range
[8] = pH 7.4, aqueous buffer, Solubility Range (maximum solubility)
[9] = pH 9, aqueous buffer, Max Solubility
[10] = pH 9, aqueous buffer, Solubility Range (maximum solubility)

solubility at 24 h (physchem; [5]) [µg/mL]	solubility at 24 h (physchem; [6]) [µg/mL]	solubility at 24 h (physchem; [7]) [µg/mL]	solubility at 24 h (physchem; [8]) [µg/mL]	MIC [1] [µg/mL]	MIC [2] [µg/mL]	MIC [3] [µg/mL]	MIC [4] [µg/mL]	solubility at 24 h (physchem; [9]) [µg/mL]	solubility at 24 h (physchem; [10]) [µg/mL]	SMILES
≥ 800	≥ 800	> 800	> 800	1 to 16 (≈ 1.78 to 28.5 µM)	0.25 to 1 (≈ 0.446 to 1.78 µM)	1 to 16 (≈ 1.78 to 28.5 µM)	≤ 0.25	–	–	CCNC(=O)Nc1nc2cc(-c3cnc(N4CCC(C)(C(=O)O)CC4)nc3)cc(NC(=O)c3ccccn3)c2s1 [Compound 149, 1-(5-(2-(3-ethylureido)-7-(picolinamido)benzo[d]thiazol-5-yl)pyrimidin-2-yl)-4-methylpiperidine-4-carboxylic acid]
–	200 (≈ 375 µM)	12.5 to 400 (≈ 23.5 to 751 µM)	–	1 to 16 (≈ 1.88 to 30 µM)	0.25 to 1 (≈ 0.469 to 1.88 µM)	1 to 16 (≈ 1.88 to 30 µM)	≤ 0.25	≥ 800	> 800	CCNC(=O)Nc1nc2cc(-c3cnc(N4CCC(C)(C(=O)O)CC4)nc3)cc(-c3nccnc3C)c2s1 [Compound 84]
≥ 800	≥ 800	> 800	> 800	≤ 0.25	≤ 0.25	1 to 16 (≈ 1.71 to 27.4 µM)	≤ 0.25	–	–	CCNC(=O)Nc1nc2cc(-c3cnc(N4CCC(C)(C(=O)O)CC4)nc3)cc(-c3cn(-c4ccccc4)nn3)c2s1 [Compound 41, 1-[5-[2-(ethylcarbamoylamino)-7-(1-phenyltriazol-4-yl)-1,3-benzothiazol-5-yl]pyrimidin-2-yl]-4-methyl-piperidine-4-carboxylic acid]
–	100 (≈ 227 µM)	12.5 to 400 (≈ 28.4 to 908 µM)	–	1 to 16 (≈ 2.27 to 36.3 µM)	1 to 16 (≈ 2.27 to 36.3 µM)	> 16	0.25 to 1 (≈ 0.567 to 2.27 µM)	400 (≈ 908 µM)	400 to 800 (≈ 908 to 1820 µM)	CCNC(=O)Nc1nc2cc(-c3cnc(N4CCC(C)(C(=O)O)CC4)nc3)ccc2s1 [Compound 46, 1-{5-[2-(3-Ethyl-ureido)-benzothiazol-5-yl]-pyrimidin-2-yl}-4-methyl-piperidine-4-carboxylic acid]
–	200 (≈ 395 µM)	12.5 to 400 (≈ 24.7 to 790 µM)	–	> 16	1 to 16 (≈ 1.97 to 31.6 µM)	> 16	1 to 16 (≈ 1.97 to 31.6 µM)	≥ 800	> 800	CCNC(=O)Nc1nc2cc(-c3cnc(N4CCC(C)(C(=O)O)CC4)nc3)cc(-n3ccnc3)c2s1 [Compound 33]
–	–	–	–	0.25 to 1 (≈ 0.534 to 2.13 µM)	1 to 16 (≈ 2.13 to 34.1 µM)	> 16	≤ 0.25	–	–	CCNC(=O)Nc1nc2cc(-c3cnc(N4CCC(C)(C(=O)O)CC4)nc3)cc(CC)c2s1 [Compound 37, 1-{5-[7-Ethyl-2-(3-ethyl-ureido)-benzothiazol-5-yl]-pyrimidin-2-yl}-4-methyl-piperidine-4-carboxylic acid]
–	–	–	–	> 16	1 to 16 (≈ 1.82 to 29.2 µM)	> 16	1 to 16 (≈ 1.82 to 29.2 µM)	–	–	CCNC(=O)Nc1nc2cc(-c3cnc(N4CCC(CC)(C(=O)O)CC4)nc3)cc(-c3cc(=O)[nH]cn3)c2s1 [Compound 111]
–	–	–	–	1 to 16 (≈ 1.91 to 30.6 µM)	> 16	> 16	≤ 0.25	–	–	CCNC(=O)Nc1nc2cc(-c3cnc(N4CCC(C)(C(=O)O)CC4)nc3)cc(C3CCCCC3)c2s1 [Compound 39, 1-{5-[7-Cyclohexyl-2-(3-ethyl-ureido)-benzothiazol-5-yl]-pyrimidin-2-yl}-4-methyl-piperidine-4-carboxylic acid]
–	400 (≈ 615 µM)	400 to 800 (≈ 615 to 1230 µM)	–	≤ 0.25	0.25 to 1 (≈ 0.384 to 1.54 µM)	1 to 16 (≈ 1.54 to 24.6 µM)	–	≥ 800	> 800	CCNC(=O)Nc1nc2cc(-c3cnc(N4CCC(C)(C(=O)O)CC4)nc3)cc(-c3ccc(CN4CCC(F)(F)CC4)cn3)c2s1 [Compound 217]
6.25 (≈ 12.5 µM)	6.25 (≈ 12.5 µM)	< 12.5	< 12.5	1 to 16 (≈ 2.01 to 32.1 µM)	1 to 16 (≈ 2.01 to 32.1 µM)	1 to 16 (≈ 2.01 to 32.1 µM)	–	–	–	CCNC(=O)Nc1nc2cc(-c3cnc(N4CCC(C)(C(=O)OCC)CC4)nc3)c(OC)cc2s1 [Compound 191, Ethyl 1-[5-[2-(ethylcarbamoylamino)-6-methoxy-1,3-benzothiazol-5-yl]pyrimidin-2-yl]-4-methyl-piperidine-4-carboxylate]
200 (≈ 375 µM)	200 (≈ 375 µM)	12.5 to 400 (≈ 23.5 to 751 µM)	12.5 to 400 (≈ 23.5 to 751 µM)	0.25 to 1 (≈ 0.469 to 1.88 µM)	≤ 0.25	1 to 16 (≈ 1.88 to 30 µM)	–	–	–	CCNC(=O)Nc1nc2cc(-c3cnc(N4CCC(CC)(C(=O)O)CC4)nc3)nc(-c3ccccn3)c2s1 [Compound 210]
–	50 (≈ 93.4 µM)	12.5 to 400 (≈ 23.3 to 747 µM)	–	1 to 16 (≈ 1.87 to 29.9 µM)	1 to 16 (≈ 1.87 to 29.9 µM)	1 to 16 (≈ 1.87 to 29.9 µM)	–	100 (≈ 187 µM)	12.5 to 400 (≈ 23.3 to 747 µM)	CCNC(=O)Nc1nc2cc(-c3cnc(NC4COC(C)(C(=O)O)OC4)nc3)cc(-c3ccccn3)c2s1 (centres unmarked) [Compound 196]
–	400 (≈ 770 µM)	400 to 800 (≈ 770 to 1540 µM)	–	≤ 0.25	0.25 to 1 (≈ 0.481 to 1.93 µM)	1 to 16 (≈ 1.93 to 30.8 µM)	–	≥ 800	> 800	CCNC(=O)Nc1nc2cc(-c3cnc(N4CCC(C)(C(=O)O)CC4)nc3)cc(Br)c2s1 [Compound 215]
≥ 800	≥ 800	> 800	> 800	1 to 16 (≈ 1.91 to 30.6 µM)	0.25 to 1 (≈ 0.477 to 1.91 µM)	1 to 16 (≈ 1.91 to 30.6 µM)	–	–	–	CCNC(=O)Nc1nc2cc(-c3cnc(N4CCC(CC)(C(=O)O)CC4)nc3)cc(C3=NOCC3)c2s1 [Compound 197, 1-[5-[7-(4,5-dihydroisoxazol-3-yl)-2-(ethylcarbamoylamino)-1,3-benzothiazol-5-yl]pyrimidin-2-yl]-4-ethyl-piperidine-4-carboxylic acid]
≥ 800	≥ 800	> 800	> 800	≤ 0.25	≤ 0.25	1 to 16 (≈ 1.82 to 29.1 µM)	–	–	–	CCNC(=O)Nc1nc2cc(-c3cnc(N4CCC(C)(C(=O)O)CC4)nc3)cc(-c3ncc(C)cc3F)c2s1 [Compound 93]
–	200 (≈ 387 µM)	12.5 to 400 (≈ 24.2 to 774 µM)	–	1 to 16 (≈ 1.94 to 31 µM)	≤ 0.25	> 16	–	≥ 800	> 800	CCNC(=O)Nc1nc2cc(-c3ccnc(N4CCC(C)(C(=O)O)CC4)c3)cc(-c3ccccn3)c2s1 [Compound 182]
≥ 800	≥ 800	> 800	> 800	1 to 16 (≈ 1.93 to 30.9 µM)	≤ 0.25	1 to 16 (≈ 1.93 to 30.9 µM)	–	–	–	CCNC(=O)Nc1nc2cc(-c3cnnc(N4CCC(C)(C(=O)O)CC4)c3)cc(-c3ccccn3)c2s1 [Compound 195, 1-[5-[2-(ethylcarbamoylamino)-7-(2-pyridyl)-1,3-benzothiazol-5-yl]pyridazin-3-yl]-4-methyl-piperidine-4-carboxylic acid]
≥ 800	≥ 800	> 800	> 800	1 to 16 (≈ 2.13 to 34 µM)	1 to 16 (≈ 2.13 to 34 µM)	1 to 16 (≈ 2.13 to 34 µM)	–	–	–	CCNC(=O)Nc1nc2cc(-c3cnc(N4CCC(C)(C(=O)O)CC4)nc3)cc(OC)c2s1 [Compound 200, 1-[5-[2-(Ethylcarbamoylamino)-7-methoxy-1,3-benzothiazol-5-yl]pyrimidin-2-yl]-4-methyl-piperidine-4-carboxylic acid]
